In one assay the target is T1, AmGr3 (Apis mellifera, UniProt A0A7M7IGL4).
T1 construct: gene LOC725483; cDNA cloned from taste tissue, subcloned in pNBIu, cRNA expressed alone in Xenopus oocytes
T1 sequence (A0A7M7IGL4 1-474): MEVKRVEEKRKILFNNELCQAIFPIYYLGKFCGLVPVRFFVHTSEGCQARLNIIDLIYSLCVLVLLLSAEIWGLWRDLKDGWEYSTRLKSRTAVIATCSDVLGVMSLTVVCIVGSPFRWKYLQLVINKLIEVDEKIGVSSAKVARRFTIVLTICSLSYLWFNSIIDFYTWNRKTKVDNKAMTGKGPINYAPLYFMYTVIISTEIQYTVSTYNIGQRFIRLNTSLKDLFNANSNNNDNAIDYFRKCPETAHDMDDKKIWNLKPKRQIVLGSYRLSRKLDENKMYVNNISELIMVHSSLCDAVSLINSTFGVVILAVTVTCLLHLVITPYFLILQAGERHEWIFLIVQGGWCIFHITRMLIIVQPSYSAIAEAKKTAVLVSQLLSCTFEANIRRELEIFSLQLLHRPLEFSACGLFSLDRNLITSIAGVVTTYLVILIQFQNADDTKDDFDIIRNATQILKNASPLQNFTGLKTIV
The assay is described as follows: two-electrode voltage clamp, Xenopus oocytes. To be noted: 160 mM sugar, pH 7.5, -80 and -140 mV; agonist. The assay is classed as cell-based.

The target of the next assay is T2, AmGr2 (Apis mellifera, UniProt A0A7M7R6T6).
T2 construct: gene LOC413684; cDNA cloned from taste tissue, subcloned in pNBIu, cRNA expressed alone in Xenopus oocytes; homomer
T2 sequence (A0A7M7R6T6 1-470): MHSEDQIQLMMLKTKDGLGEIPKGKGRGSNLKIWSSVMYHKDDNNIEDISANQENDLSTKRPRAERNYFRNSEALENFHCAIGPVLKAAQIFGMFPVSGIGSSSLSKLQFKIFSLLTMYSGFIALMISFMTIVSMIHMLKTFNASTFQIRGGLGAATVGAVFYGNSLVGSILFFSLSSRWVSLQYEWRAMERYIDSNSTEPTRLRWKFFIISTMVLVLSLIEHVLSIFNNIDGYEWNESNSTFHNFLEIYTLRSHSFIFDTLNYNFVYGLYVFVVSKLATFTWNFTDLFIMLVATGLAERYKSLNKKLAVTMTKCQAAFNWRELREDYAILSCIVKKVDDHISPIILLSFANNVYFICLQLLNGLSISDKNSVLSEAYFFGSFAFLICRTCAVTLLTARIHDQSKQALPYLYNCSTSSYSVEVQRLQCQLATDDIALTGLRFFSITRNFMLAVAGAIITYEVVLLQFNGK
Nature of the assay: two-electrode voltage clamp, Xenopus oocytes. In kind it is cell-based. To be noted: 160 mM sugar, pH 7.5, -80 mV, agonist. In general terms: In two-electrode clamp one electrode senses voltage and the other passes current.

The structures appear in SMILES notation.

Consider `OCC1(O)OC[C@@H](O)[C@@H](O)[C@@H]1O` (stereo partly drawn) [fructose], for which the “two-electrode voltage clamp, Xenopus oocytes” value (shortened to “two-electrode voltage clamp”) on AmGr3 was “The sole expression of AmGr3 in oocytes revealed only fructose-induced current responses”.
For the compound `OC[C@H]1OC(O)[C@H](O)[C@@H](O)[C@@H]1O` (stereo partly drawn) [glucose], at AmGr2 (transient microscopic inward current), the “two-electrode voltage clamp” value is “AmGr2-expression revealed transient inward currents during glucose application”.
Regarding `OC[C@H]1O[C@@](CO)(O[C@H]2O[C@H](CO)[C@@H](O)[C@H](O)[C@H]2O)[C@@H](O)[C@@H]1O` [sucrose], the “two-electrode voltage clamp” value at AmGr2 (microscopic inward current) was “Sustained inward currents could only be generated by application of sucrose”.

These data come from PMC9880324, “Sugar perception in honeybees” (Frontiers in Physiology, 2023).
